From ChEMBL document CHEMBL1201862, “PubChem BioAssay data set” (2004)
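Where inhibition never reached the appropriate level, the endpoint shown equals the highest concentration tested. Otherwise, values were interpolated linearly from a five-concentration, 48-hour dose response in 96-well plates. Abbreviation: GI50, concentration required for 50% inhibition of growth.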 Calls of active or inactive are those of the source. No stated cut-off is given here; in the data, active = GI50 up to about 1.1 µM and inactive = higher.

Assays:
Experiment in all cases: NCI tumour cell line growth inhibition, 48 h
MCF7 = system: MCF7
SF-539 = system: SF-539
OVCAR-3 = system: OVCAR-3
MDA-N = system: MDA-N
HCC 2998 = system: HCC 2998
LOX IMVI = system: LOX IMVI
786-0 = system: 786-0
SR = system: SR
KM12 = system: KM12
SF-268 = system: SF-268
BT-549 = system: BT-549
HT-29 = system: HT-29
NCI-H226 = system: NCI-H226
T47D = system: T47D
MDA-MB-435 = system: MDA-MB-435
OVCAR-8 = system: OVCAR-8
SK-MEL-2 = system: SK-MEL-2
PC-3 = system: PC-3
HCT-15 = system: HCT-15
UACC-257 = system: UACC-257
DU-145 = system: DU-145
SK-OV-3 = system: SK-OV-3
SW-620 = system: SW-620
OVCAR-5 = system: OVCAR-5
A549 = system: A549
EKVX = system: EKVX
SNB-19 = system: SNB-19
UO-31 = system: UO-31
HOP-92 = system: HOP-92
U-251 = system: U-251
UACC-62 = system: UACC-62
M14 = system: M14
NCI/ADR-RES = system: NCI/ADR-RES
NCI-H460 = system: NCI-H460
ACHN = system: ACHN
SN12C = system: SN12C
NCI-H23 = system: NCI-H23
MDA-MB-231 = system: MDA-MB-231
SNB-75 = system: SNB-75
NCI-H522 = system: NCI-H522
OVCAR-4 = system: OVCAR-4
TK-10 = system: TK-10
Hs-578T = system: Hs-578T
HL-60 = system: HL-60
SF-295 = system: SF-295
IGROV-1 = system: IGROV-1
RXF 393 = system: RXF 393
Malme-3M = system: Malme-3M
SK-MEL-28 = system: SK-MEL-28
HCT-116 = system: HCT-116
RPMI-8226 = system: RPMI-8226
SK-MEL-5 = system: SK-MEL-5
HOP-62 = system: HOP-62
CAKI-1 = system: CAKI-1
K562 = system: K562
COLO 205 = system: COLO 205
CCRF-CEM = system: CCRF-CEM
MOLT-4 = system: MOLT-4

For Cc1[nH]c(=O)c2oc3cc4ccccc4cc3c2c1C(=O)O, the GI50 (MCF7) was > 10 µM (inactive), the GI50 (SF-539) was > 10 µM (inactive) and the GI50 (OVCAR-3) was > 10 µM (inactive). For the same molecule, the GI50 (MDA-N) was > 10 µM (inactive), the GI50 (HCC 2998) was > 10 µM (inactive) and the GI50 (LOX IMVI) was > 10 µM (inactive). The GI50 (786-0) was > 10 µM (inactive), the GI50 (SR) was > 10 µM (inactive) and the GI50 (KM12) was > 10 µM (inactive). For the same molecule, the GI50 (SF-268) was > 10 µM (inactive), the GI50 (BT-549) was > 10 µM (inactive) and the GI50 (HT-29) was > 10 µM (inactive). The GI50 (NCI-H226) was > 10 µM (inactive), the GI50 (T47D) was > 10 µM (inactive) and the GI50 (MDA-MB-435) was > 10 µM (inactive). For the same molecule, the GI50 (OVCAR-8) was > 10 µM (inactive), the GI50 (SK-MEL-2) was > 10 µM (inactive) and the GI50 (PC-3) was > 10 µM (inactive). For the same molecule, the GI50 (HCT-15) was > 10 µM, the GI50 (UACC-257) was > 10 µM (inactive) and the GI50 (DU-145) was > 10 µM (inactive). For the same molecule, the GI50 (SK-OV-3) was > 10 µM (inactive), the GI50 (SW-620) was > 10 µM (inactive) and the GI50 (OVCAR-5) was > 10 µM (inactive). The GI50 (A549) was > 10 µM (inactive), the GI50 (EKVX) was > 10 µM (inactive) and the GI50 (SNB-19) was > 10 µM (inactive). The GI50 (UO-31) was > 10 µM (inactive), the GI50 (HOP-92) was > 10 µM (inactive) and the GI50 (U-251) was > 10 µM (inactive). For the same molecule, the GI50 (UACC-62) was > 10 µM (inactive), the GI50 (M14) was > 10 µM (inactive) and the GI50 (NCI/ADR-RES) was > 10 µM (inactive). For the same molecule, the GI50 (NCI-H460) was > 10 µM (inactive), the GI50 (ACHN) was > 10 µM (inactive) and the GI50 (SN12C) was > 10 µM (inactive). For the same molecule, the GI50 (NCI-H23) was > 10 µM (inactive), the GI50 (MDA-MB-231) was > 10 µM (inactive) and the GI50 (SNB-75) was > 10 µM (inactive). The GI50 (NCI-H522) was > 10 µM (inactive), the GI50 (OVCAR-4) was > 10 µM (inactive) and the GI50 (TK-10) was > 10 µM (inactive). For the same molecule, the GI50 (Hs-578T) was > 10 µM (inactive), the GI50 (HL-60) was > 10 µM (inactive) and the GI50 (SF-295) was 8.99 µM (inactive). The GI50 (IGROV-1) was > 10 µM (inactive), the GI50 (RXF 393) was > 10 µM (inactive) and the GI50 (Malme-3M) was > 10 µM (inactive).

With C=CCOC(=O)C1=C(C)N=C2N[C@H](CCCCCCCCC)C[C@@H]3CCC1N23 (some centres undefined) the GI50 (MCF7) was 18 µM (inactive), the GI50 (SF-539) was 19 µM (inactive) and the GI50 (OVCAR-3) was 19.4 µM (inactive). For the same molecule, the GI50 (MDA-N) was 18.4 µM (inactive), the GI50 (HCC 2998) was 21.9 µM (inactive) and the GI50 (LOX IMVI) was 21.6 µM (inactive). For the same molecule, the GI50 (786-0) was 20 µM (inactive), the GI50 (SR) was 28.4 µM (inactive) and the GI50 (KM12) was 34 µM (inactive). For the same molecule, the GI50 (SK-MEL-28) was 21.7 µM (inactive), the GI50 (SF-268) was 19.3 µM (inactive) and the GI50 (HCT-116) was 18.8 µM (inactive). For the same molecule, the GI50 (BT-549) was 19.9 µM (inactive), the GI50 (RPMI-8226) was 30.7 µM (inactive) and the GI50 (SK-MEL-5) was 17.7 µM (inactive). The GI50 (HT-29) was 27.9 µM (inactive), the GI50 (NCI-H226) was 17.9 µM (inactive) and the GI50 (T47D) was 23.2 µM (inactive). For the same molecule, the GI50 (MDA-MB-435) was 20.3 µM (inactive), the GI50 (OVCAR-8) was 30.5 µM (inactive) and the GI50 (SK-MEL-2) was 19.8 µM (inactive). The GI50 (PC-3) was 21.6 µM (inactive), the GI50 (HCT-15) was 21.3 µM and the GI50 (UACC-257) was 18.3 µM (inactive). For the same molecule, the GI50 (DU-145) was 27.4 µM (inactive), the GI50 (SK-OV-3) was 27.5 µM (inactive) and the GI50 (SW-620) was 28.7 µM (inactive). The GI50 (OVCAR-5) was 22.7 µM (inactive), the GI50 (A549) was 30.1 µM (inactive) and the GI50 (HOP-62) was 30.5 µM (inactive). For the same molecule, the GI50 (CAKI-1) was 34 µM (inactive), the GI50 (EKVX) was 22.4 µM (inactive) and the GI50 (SNB-19) was 19.2 µM (inactive). The GI50 (K562) was 30.3 µM (inactive), the GI50 (UO-31) was 17.1 µM (inactive) and the GI50 (HOP-92) was 19.3 µM (inactive). For the same molecule, the GI50 (U-251) was 20.9 µM (inactive), the GI50 (UACC-62) was 17.7 µM (inactive) and the GI50 (M14) was 18.7 µM (inactive). For the same molecule, the GI50 (NCI/ADR-RES) was 22.8 µM (inactive), the GI50 (NCI-H460) was 25.4 µM (inactive) and the GI50 (ACHN) was 21.5 µM (inactive). The GI50 (SN12C) was 18.2 µM (inactive), the GI50 (COLO 205) was 21.3 µM (inactive) and the GI50 (NCI-H23) was 20 µM (inactive). For the same molecule, the GI50 (MDA-MB-231) was 21.5 µM (inactive), the GI50 (SNB-75) was 30.5 µM (inactive) and the GI50 (NCI-H522) was 16.7 µM (inactive). The GI50 (OVCAR-4) was 21 µM (inactive), the GI50 (TK-10) was 19.2 µM (inactive) and the GI50 (CCRF-CEM) was 36.4 µM (inactive). For the same molecule, the GI50 (Hs-578T) was 21.5 µM (inactive), the GI50 (HL-60) was 26.4 µM (inactive) and the GI50 (MOLT-4) was 30.1 µM (inactive). For the same molecule, the GI50 (SF-295) was 34.9 µM (inactive), the GI50 (IGROV-1) was 21.6 µM (inactive) and the GI50 (RXF 393) was 19.5 µM (inactive). The GI50 (Malme-3M) was 17.3 µM (inactive).

With NC(Cc1ccccc1)C(=O)OCN1C(=O)C2C3C=CC(C2C1=O)C1C(=O)N(COC(=O)C(N)Cc2ccccc2)C(=O)C31 (centres undefined) the GI50 (MCF7) was 17.5 µM (inactive), the GI50 (SF-539) was > 100 µM (inactive) and the GI50 (OVCAR-3) was > 100 µM (inactive). The GI50 (MDA-N) was > 100 µM (inactive), the GI50 (HCC 2998) was > 100 µM (inactive) and the GI50 (LOX IMVI) was 22 µM (inactive). For the same molecule, the GI50 (786-0) was 35.7 µM (inactive), the GI50 (SR) was 24.4 µM (inactive) and the GI50 (SK-MEL-28) was 67.6 µM (inactive). For the same molecule, the GI50 (SF-268) was > 100 µM (inactive), the GI50 (HCT-116) was 42.5 µM (inactive) and the GI50 (BT-549) was > 100 µM (inactive). For the same molecule, the GI50 (RPMI-8226) was 23.2 µM (inactive), the GI50 (SK-MEL-5) was 49.8 µM (inactive) and the GI50 (HT-29) was 18.4 µM (inactive). The GI50 (NCI-H226) was > 100 µM (inactive), the GI50 (T47D) was > 100 µM (inactive) and the GI50 (MDA-MB-435) was > 100 µM (inactive). The GI50 (OVCAR-8) was > 100 µM (inactive), the GI50 (SK-MEL-2) was 22.6 µM (inactive) and the GI50 (PC-3) was > 100 µM (inactive). For the same molecule, the GI50 (HCT-15) was 27.4 µM, the GI50 (UACC-257) was 75.2 µM (inactive) and the GI50 (DU-145) was > 100 µM (inactive). For the same molecule, the GI50 (SW-620) was 28.8 µM (inactive), the GI50 (OVCAR-5) was > 100 µM (inactive) and the GI50 (A549) was > 100 µM (inactive). The GI50 (HOP-62) was > 100 µM (inactive), the GI50 (CAKI-1) was > 100 µM (inactive) and the GI50 (EKVX) was > 100 µM (inactive). For the same molecule, the GI50 (SNB-19) was > 100 µM (inactive), the GI50 (K562) was 28.5 µM (inactive) and the GI50 (UO-31) was > 100 µM (inactive). For the same molecule, the GI50 (U-251) was > 100 µM (inactive), the GI50 (UACC-62) was 38.8 µM (inactive) and the GI50 (M14) was 92 µM (inactive). The GI50 (NCI/ADR-RES) was > 100 µM (inactive), the GI50 (NCI-H460) was 67.9 µM (inactive) and the GI50 (ACHN) was > 100 µM (inactive). The GI50 (SN12C) was > 100 µM (inactive), the GI50 (COLO 205) was 75.9 µM (inactive) and the GI50 (NCI-H23) was 66.2 µM (inactive). The GI50 (MDA-MB-231) was 78 µM (inactive), the GI50 (NCI-H522) was > 100 µM (inactive) and the GI50 (TK-10) was > 100 µM (inactive). The GI50 (CCRF-CEM) was 21.7 µM (inactive), the GI50 (Hs-578T) was > 100 µM (inactive) and the GI50 (HL-60) was 17.4 µM (inactive). For the same molecule, the GI50 (MOLT-4) was 22.4 µM (inactive), the GI50 (SF-295) was > 100 µM (inactive) and the GI50 (IGROV-1) was > 100 µM (inactive). For the same molecule, the GI50 (RXF 393) was > 100 µM (inactive) and the GI50 (Malme-3M) was 17.2 µM (inactive).
